# Data: BindingDB's records for doi:10.1016/S0960-894X(01)81027-1 (1993)
# Counter-ions that a name gives are not always drawn.
# Molecular target: Sigma non-opioid intracellular receptor 1 (Cavia porcellus) (UniProt Q60492)
# Test: The compound was evaluated for binding affinity against sigma receptor using [3H]DTG radioligand in guinea pig membranes
# Sigma non-opioid intracellular receptor 1 (Cavia porcellus), sequence (Q60492 whole entry, looked up): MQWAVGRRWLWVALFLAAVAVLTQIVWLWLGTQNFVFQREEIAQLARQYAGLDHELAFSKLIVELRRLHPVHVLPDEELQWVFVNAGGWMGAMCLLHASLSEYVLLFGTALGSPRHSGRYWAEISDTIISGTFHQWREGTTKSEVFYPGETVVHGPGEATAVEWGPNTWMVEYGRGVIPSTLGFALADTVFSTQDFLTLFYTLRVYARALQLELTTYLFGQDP
row,IC50,Structure (SMILES)
1,16 nM,"CC(=NC12CC3CC(CC(C3)C1)C2)NC12CC3CC(CC(C3)C1)C2 [N,N'-Di-adamantan-1-yl-acetamidine]"
2,26 nM,"CC(=Nc1ccc(Br)cc1C)Nc1ccc(Br)cc1C [N,N'-Bis-(4-bromo-2-methyl-phenyl)-acetamidine]"
3,15 nM,"CC(=Nc1ccccc1C)Nc1ccccc1C [N,N'-Di-o-tolyl-acetamidine; hydrochloride]"
4,9 nM,CC(=Nc1ccccc1C)NC1CCCCC1 [N-Cyclohexyl-N'-o-tolyl-acetamidine; hydrochloride]
5,72 nM,CC(=NC12CC3CC(CC(C3)C1)C2)NC1CCCCC1 [N-Adamantan-1-yl-N'-cyclohexyl-acetamidine]
6,6 nM,CC(=Nc1ccccc1C)NC12CC3CC(CC(C3)C1)C2 [N-Adamantan-1-yl-N'-o-tolyl-acetamidine; hydrochloride]
7,9 nM,CC(=Nc1ccccc1C)NC1CC2CCC1C2 (configuration not stated) [N-Bicyclo[2.2.1]hept-2-yl-N'-o-tolyl-acetamidine]
